The values below come from patent US20120101083A1, “S1P1 AGONISTS COMPRISING A BICYCLIC N-CONTAINING RING” (GLAXO GROUP LIMITED, priority 2009, published 2012).

Counter-ions that a name gives are not always drawn. Some results are limits rather than exact numbers.

Test [1] addresses T1, S1P1 (PathHunter CHO-K1 EDG1 β-Arrestin cell line) (Homo sapiens, UniProt P21453).
T1 construct: host or cells: PathHunter CHO-K1 EDG1 β-Arrestin cell line
In words: S1P-1 β-Arrestin recruitment assay. The following applies: CHO-K1 EDG1 β-Arrestin cells, chemi-luminescence. The format is cell-based. The procedure, abridged: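 CHO-K1 cells expressing S1P1 and β-arrestin 2 fused to complementing β-galactosidase fragments, at 1×10^4 cells/well in pH 7.4 buffer with 0.1% BSA. Compound exposure 90 min at 37 °C then 15 min room temperature; chemiluminescent substrate added for 60 min before luminescence read.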
(In general: Arrestin recruitment assays detect the binding of arrestin to an activated receptor.)

Test [2] has as its target T2, S1P1 receptor (S1P1 expressing RH7777 membranes) (Homo sapiens, UniProt P21453).
T2 construct: expressed in transfected cells; host or cells: RH7777 cells (membranes)
Description: S1P1 GTPγS assay. The format is biochemical. The following applies: tested in one of the above S1P1 assays (two GTPγS formats). The procedure, abridged: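 Membranes from RH7777 cells expressing human S1P1 (1.5 μg/well) precoupled 30 min on ice to WGA SPA beads in 20 mM HEPES pH 7.4, 10 mM MgCl2, 100 mM NaCl, with 10 μM GDP and 90 μg/ml saponin. [35S]-GTPγS 0.5 nM final added with compound; SPA signal read immediately.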

The term EC50 denotes the midpoint of the concentration-response curve. A high value points to lower potency in that assay.

T2 sequence (P21453 whole entry): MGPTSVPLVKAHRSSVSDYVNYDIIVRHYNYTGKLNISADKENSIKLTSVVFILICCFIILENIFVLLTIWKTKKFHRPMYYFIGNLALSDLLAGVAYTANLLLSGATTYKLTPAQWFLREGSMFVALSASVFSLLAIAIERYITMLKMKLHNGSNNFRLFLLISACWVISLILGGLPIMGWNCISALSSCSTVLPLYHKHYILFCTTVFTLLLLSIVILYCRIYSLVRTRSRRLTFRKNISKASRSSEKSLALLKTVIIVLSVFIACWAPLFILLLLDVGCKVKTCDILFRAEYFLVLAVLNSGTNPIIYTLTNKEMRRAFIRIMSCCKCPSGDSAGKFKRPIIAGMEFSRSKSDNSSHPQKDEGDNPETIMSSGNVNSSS
T1 sequence (P21453 whole entry): as above
T1 sequence (P32121 whole entry partner): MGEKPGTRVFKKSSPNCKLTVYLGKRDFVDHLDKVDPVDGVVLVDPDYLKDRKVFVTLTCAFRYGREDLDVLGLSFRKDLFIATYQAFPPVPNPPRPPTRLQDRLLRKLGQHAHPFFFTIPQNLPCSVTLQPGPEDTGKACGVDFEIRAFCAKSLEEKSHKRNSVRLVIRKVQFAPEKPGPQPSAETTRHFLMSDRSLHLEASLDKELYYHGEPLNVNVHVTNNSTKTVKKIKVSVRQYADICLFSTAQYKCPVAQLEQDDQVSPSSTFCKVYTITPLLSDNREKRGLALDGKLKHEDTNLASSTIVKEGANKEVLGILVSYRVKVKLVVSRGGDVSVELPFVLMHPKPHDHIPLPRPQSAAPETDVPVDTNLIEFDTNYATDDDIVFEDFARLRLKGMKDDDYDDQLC

On to `Cc1c(-c2noc(-c3ccc(OC(C)C)c(C#N)c3)n2)ccc2c1CCN(C(=O)CCN)C2` [Example 39, 5-[3-(2-β-Alanyl-5-methyl-1,2,3,4-tetrahydro-6-isoquinolinyl)-1,2,4-oxadiazol-5-yl]-2-[(1-methylethyl)oxy]benzonitrile hydrochloride], for which the concentration for a half-maximal effect (EC50) in test [1] was no more than 10 nM; in test [2], no more than 100 nM.
The like results for `Cc1c(-c2noc(-c3ccc(OC(C)C)c(C#N)c3)n2)ccc2c1CCN(C(=O)CNC(CO)CO)CC2` [Example 189, 5-[3-(3-{N-[2-hydroxy-1-(hydroxymethyl)ethyl]glycyl}-6-methyl-2,3,4,5-tetrahydro-1H-3-benzazepin-7-yl)-1,2,4-oxadiazol-5-yl]-2-[(1-methylethyl)oxy]benzonitrile] were, in that order, no more than 10 nM and no more than 100 nM.
The matching figures for `Cc1c(-c2noc(-c3ccc(OC(C)C)c(C#N)c3)n2)ccc2c1CCN(CC(=O)N[C@@H](C)CO)CC2` [Example 158, 2-[7-(5-{3-cyano-4-[(1-methylethyl)oxy]phenyl}-1,2,4-oxadiazol-3-yl)-6-methyl-1,2,4,5-tetrahydro-3H-3-benzazepin-3-yl]-N-[(1S)-2-hydroxy-1-methylethyl]acetamide]: no more than 10 nM and no more than 100 nM.
The like results for `Cc1c(-c2noc(-c3ccc(OC(C)C)c(C#N)c3)n2)ccc2c1CCN(CC(=O)NC[C@H](O)CO)C2` [Example 124, 2-[6-(5-{3-cyano-4-[(1-methylethyl)oxy]phenyl}-1,2,4-oxadiazol-3-yl)-5-methyl-3,4-dihydro-2(1H)-isoquinolinyl]-N-[(2S)-2,3-dihydroxypropyl]acetamide hydrochloride] were, in that order, no more than 10 nM and no more than 100 nM.
In the case of `CC(C)Oc1ccc(-c2nc(-c3ccc4c(c3)CCN(C(=O)CNC(CO)CO)CC4)no2)cc1C#N` [Example 197, 5-[3-(3-{N-[2-hydroxy-1-(hydroxymethyl)ethyl]glycyl}-2,3,4,5-tetrahydro-1H-3-benzazepin-7-yl)-1,2,4-oxadiazol-5-yl]-2-[(1-methylethyl)oxy]benzonitrile hydrochloride], the EC50 is no more than 10 nM in test [1] and no more than 100 nM in test [2].
The matching figures for `Cc1c(-c2noc(-c3ccc(OC(C)C)c(C#N)c3)n2)ccc2c1CCN(C(CO)CO)CC2` [Example 156, 5-(3-{3-[2-hydroxy-1-(hydroxymethyl)ethyl]-6-methyl-2,3,4,5-tetrahydro-1H-3-benzazepin-7-yl}-1,2,4-oxadiazol-5-yl)-2-[(1-methylethyl)oxy]benzonitrile hydrochloride]: no more than 10 nM and no more than 100 nM.
As to `Cc1c(-c2noc(-c3cnc(OC(C)C)c(C#N)c3)n2)ccc2c1CCN(C(CO)CO)C2` [Example 134, 5-(3-{2-[2-hydroxy-1-(hydroxymethyl)ethyl]-5-methyl-1,2,3,4-tetrahydro-6-isoquinolinyl}-1,2,4-oxadiazol-5-yl)-2-[(1-methylethyl)oxy]-3-pyridinecarbonitrile hydrochloride], the results for the 50% effective concentration (EC50) in test [1] and in test [2] were no more than 10 nM and no more than 100 nM, respectively.
The matching figures for `CC(C)Oc1ccc(-c2nc(-c3ccc4c(c3)CCN(C(CO)CO)CC4)no2)cc1C#N` [Example 68, 5-(3-{3-[2-hydroxy-1-(hydroxymethyl)ethyl]-2,3,4,5-tetrahydro-1H-3-benzazepin-7-yl}-1,2,4-oxadiazol-5-yl)-2-[(1-methylethyl)oxy]benzonitrile]: no more than 100 nM and no more than 100 nM.
The matching figures for `Cc1c(-c2noc(-c3ccc(OC(C)C)c(C#N)c3)n2)ccc2c1CCN(C[C@@H](O)CO)CC2` [Example 154, 5-(3-{3-[(2R)-2,3-dihydroxypropyl]-6-methyl-2,3,4,5-tetrahydro-1H-3-benzazepin-7-yl}-1,2,4-oxadiazol-5-yl)-2-[(1-methylethyl)oxy]benzonitrile hydrochloride]: no more than 100 nM and no more than 100 nM.
The matching figures for `Cc1c(-c2noc(-c3ccc(OC(C)C)c(C#N)c3)n2)ccc2c1CCN(C(CO)CO)C2` [Example 64, 5-(3-{2-[2-hydroxy-1-(hydroxymethyl)ethyl]-5-methyl-1,2,3,4-tetrahydro-6-isoquinolinyl}-1,2,4-oxadiazol-5-yl)-2-[(1-methylethyl)oxy]benzonitrile]: no more than 10 nM and no more than 1000 nM.
Regarding `Cc1c(-c2noc(-c3ccc(OC(C)C)c(C#N)c3)n2)ccc2c1CCN(CCC(=O)N(C)C)C2` [Example 2, 3-[6-(5-{3-Cyano-4-[(1-methylethyl)oxy]phenyl}-1,2,4-oxadiazol-3-yl)-5-methyl-3,4-dihydro-2(1H)-isoquinolinyl]-N,N-dimethylpropanamide], the concentration for a half-maximal effect (EC50) in test [1] and in test [2] was no more than 100 nM throughout.
Turning to `Cc1c(-c2noc(-c3cnc(OC(C)C)c(C#N)c3)n2)ccc2c1CCN(C(=O)[C@@H](N)[C@@H](C)O)C2` [Example 79, 2-[(1-methylethyl)oxy]-5-[3-(5-methyl-2-L-threonyl-1,2,3,4-tetrahydro-6-isoquinolinyl)-1,2,4-oxadiazol-5-yl]-3-pyridinecarbonitrile hydrochloride], the 50% effective concentration (EC50) was no more than 10 nM in test [1] and no more than 100 nM in test [2].
The like results for `N#Cc1cc(-c2nc(-c3ccc4c(c3)CCN(C(=O)CN)CC4)no2)ccc1OC(CF)CF` [Example 54, 2-{[2-fluoro-1-(fluoromethyl)ethyl]oxy}-5-[3-(3-glycyl-2,3,4,5-tetrahydro-1H-3-benzazepin-7-yl)-1,2,4-oxadiazol-5-yl]benzonitrile] were, in that order, no more than 10 nM and no more than 100 nM.
Regarding `Cc1c(-c2noc(-c3ccc(OC(C)C)c(C#N)c3)n2)ccc2c1CCN(CC(=O)N[C@@H](C)CO)C2` [Example 119, 2-[6-(5-{3-cyano-4-[(1-methylethyl)oxy]phenyl}-1,2,4-oxadiazol-3-yl)-5-methyl-3,4-dihydro-2(1H)-isoquinolinyl]-N-[(1S)-2-hydroxy-1-methylethyl]acetamide hydrochloride], the concentration for a half-maximal effect (EC50) in test [1] and in test [2] was no more than 10 nM in each case.
For `COC(=O)NCCN1CCc2ccc(-c3noc(-c4ccc(OC(C)C)c(C#N)c4)n3)cc2CC1` [Example 100, methyl {2-[7-(5-{3-cyano-4-[(1-methylethyl)oxy]phenyl}-1,2,4-oxadiazol-3-yl)-1,2,4,5-tetrahydro-3H-3-benzazepin-3-yl]ethyl}carbamate], the EC50 in test [1] and in test [2] was no more than 10 nM throughout.
On to `CC(C)Oc1ccc(-c2nc(-c3ccc4c(c3)CCN(CCC(N)=O)CC4)no2)cc1C#N` [Example 22, 3-[7-(5-{3-Cyano-4-[(1-methylethyl)oxy]phenyl}-1,2,4-oxadiazol-3-yl)-1,2,4,5-tetrahydro-3H-3-benzazepin-3-yl]propanamide], for which the EC50 in test [1] was no more than 10 nM; in test [2], no more than 100 nM.
As to `Cc1c(-c2noc(-c3ccc(OC(C)C)c(C#N)c3)n2)ccc2c1CCN(CCCC(N)=O)C2` [Example 4, 4-[6-(5-{3-Cyano-4-[(1-methylethyl)oxy]phenyl}-1,2,4-oxadiazol-3-yl)-5-methyl-3,4-dihydro-2(1H)-isoquinolinyl]butanamide], the EC50 is no more than 10 nM in test [1] and no more than 100 nM in test [2].
The matching figures for `CCNC(=O)NCCN1CCc2ccc(-c3noc(-c4ccc(OC(C)C)c(C#N)c4)n3)cc2CC1` [Example 105, N-{2-[7-(5-{3-cyano-4-[(1-methylethyl)oxy]phenyl}-1,2,4-oxadiazol-3-yl)-1,2,4,5-tetrahydro-3H-3-benzazepin-3-yl]ethyl}-N′-ethylurea]: no more than 100 nM and no more than 10 nM.
